Test results taken from patent US9023831B2, “Methods and compositions of inhibiting complement and cellular activation with Dextran Sulfate” (Novelmed Therapeutics, Inc., priority 2007, dated 2015).

Experiments:
[1] = system: platelets (CD62P staining); assay: Platelet activation (CD62P flow cytometry) after tubing loop; format: cell-based, human; details: Aspirin 100 μg/ml added to NM3014 prior to tubing loop rotation
Protocol: It was expected that platelet activation would also be inhibited. […] The inhibition of platelet activation was measured using flow cytometry following CD62P staining of activated platelets.
It was expected that platelet activation will also be inhibited. […] The inhibition of platelet activation was measured using flow cytometry following CD62P staining of activated platelets.
While platelets bear C3a receptors, it is not clear how platelets were being activated. In an effort to downregulate platelet activation, we performed an experiment in which Dextran Sulfate was utilized in combination with aspirin. […] These surprising results present Dextran Sulfate as a lead complement inhibitory drug that down regulates both complement and cellular activation in heparinized whole human blood. Shown in FIGS. 10d and 10e are results from this study.
For CD62P labeling of platelets, 100 μl of diluted blood collected from the circuits were immediately incubated with 20 μl of PE-anti-CD62P antibody (Becton Dickinson) for 20 minutes at room temperature in a polypropylene tube, Then the mixture was treated with FACS Lysing Solution as described above. The microcentrifuge tubes were centrifuged at 12000. g for 5 minutes. The platelets were washed in PBS/BSA 01%, fixed in 1% paraformaldehyde and then analyzed as described above. For double labeling to concomitantly identify the platelet population, 5 μl of FITC-anti-CD61 antibody were added for incubation together with PE-anti-CD62P antibody.
For flow cytometry measurement, the PMN (containing mainly neutrophils) and platelet populations were identified by live gating based on forward- versus side-scatter parameters and specific staining with FITC-anti-CD15 antibody and FITC-anti-CD61 antibody, respectively. The background staining was gated using isotype-matched labeled antibodies. The intensity of expression of CD11b and CD62P was represented by mean fluorescence intensity (MFI).

arthritic Lewis rats = assay: Joint inflammation and bone destruction in Rat-AIA (CFA-induced arthritis); format: in vivo
Protocol: Lewis male rats were used to examine the effect of Dextran Sulfate combination with aggrastat (molecular weight 40,000 and 5,000) for the treatment of arthritis. Arthritis was induced in adult male Lewis rats (200-225 gm) by an intradermal injection of complete Freund's adjuvant (CFA) at the base of the tail on the dorsal side. The CFA (100 mg dried and heat killed Mycobacterium butyricum (Difco, Detroit, Mich.) emulsified in 10 ml sterile mineral oil) was prepared by grinding the bacteria powder with a mortar and pestle until the bacterial cell wall turned from a light beige to an eggshell white powder. The mineral oil was then slowly mixed into the bacterial cell wall using the mortar and pestle. All animals in each experiment were challenged with the same preparation of adjuvant and nearly 100% of the animals developed arthritis. Dextran Sulfate was obtained from Sigma Aldrich Corp and Aggrastat was purchased from the pharmacy. Dextran Sulfate was dissolved in aggrastat. The drug treatment started on day 10 post-immunization, the time of disease onset, and continued until sacrifice. The dose of Dextran Sulfate was 20 & 10 mg/Kg/per day per 150-200 g rat. The inflammatory response was assesed by the measurement of paw volume. Paw volume appears to be very consistent and gave slow increasing arthritis over time. Paw volumes were measured every day until sacrifice using Plethysmometer (IITC). After the sacrifice/euthanasia, limbs were removed and processed for;
a) histological evaluations: Only three animals were used per group. Sections were stained with Eosin and hematoxylin to identify various regions within the inflamed limb. Untreated controls have intact cartilage layer and the bone (Score 0) and clear synovium without pannus. Arthritic controls had no defined cartilage bone, and have pannus layer and significant inflammation (Score 5). Enbrel was used as positive control. […] We gave a score of 2.
b) Paw Swelling: Each paw was measured for water displacement using plethysmometer. Paw volume was measured every day.
Continuous treatment of Dextran Sulfate therapies from disease onset affected paw swelling in arthritic rats. All adjuvant-challenged rats developed AA between days 10-12. […] While inflammation was decreased in these treatment groups, we observed a greater effect for these drugs in prevention of bone and cartilage destruction.

**Q.** What does the source list for `CC(=O)Oc1ccccc1C(=O)O` [Aspirin, reference compound]?
**A.** inhibition of NM3014 induced platelet activation [1]: inhibition of platelet activation much below the control levels; inhibition of NM3014 induced platelet activation ([1]; listed as aspirin): downregulated activation of platelets much below control levels

**Q.** How did the “paw swelling (paw volume, plethysmometer)” value (arthritic Lewis rats; with Aggrastat, compared to untreated controls) turn out when Dextran Sulfate [Dextran Sulfate 5,000] was run?
**A.** decreased the inflammation

**Q.** Enbrel [reference compound] was tested. Which histological score (arthritic Lewis rats; Score 0 untreated controls, Score 5 arthritic controls) did it give?
**A.** 2
